{"source": "ChEMBL document CHEMBL5518238", "about": "“Structure-Activity Relationship (SAR) Studies of Novel Monovalent AR/AR-V7 Dual Degraders with Potent Efficacy against Advanced Prostate Cancer” (J Med Chem, 2024)", "key": {"[1]": {"molecular_target": "T1, Androgen receptor (Homo sapiens) (UniProt P10275)", "T1 sequence (whole entry)": "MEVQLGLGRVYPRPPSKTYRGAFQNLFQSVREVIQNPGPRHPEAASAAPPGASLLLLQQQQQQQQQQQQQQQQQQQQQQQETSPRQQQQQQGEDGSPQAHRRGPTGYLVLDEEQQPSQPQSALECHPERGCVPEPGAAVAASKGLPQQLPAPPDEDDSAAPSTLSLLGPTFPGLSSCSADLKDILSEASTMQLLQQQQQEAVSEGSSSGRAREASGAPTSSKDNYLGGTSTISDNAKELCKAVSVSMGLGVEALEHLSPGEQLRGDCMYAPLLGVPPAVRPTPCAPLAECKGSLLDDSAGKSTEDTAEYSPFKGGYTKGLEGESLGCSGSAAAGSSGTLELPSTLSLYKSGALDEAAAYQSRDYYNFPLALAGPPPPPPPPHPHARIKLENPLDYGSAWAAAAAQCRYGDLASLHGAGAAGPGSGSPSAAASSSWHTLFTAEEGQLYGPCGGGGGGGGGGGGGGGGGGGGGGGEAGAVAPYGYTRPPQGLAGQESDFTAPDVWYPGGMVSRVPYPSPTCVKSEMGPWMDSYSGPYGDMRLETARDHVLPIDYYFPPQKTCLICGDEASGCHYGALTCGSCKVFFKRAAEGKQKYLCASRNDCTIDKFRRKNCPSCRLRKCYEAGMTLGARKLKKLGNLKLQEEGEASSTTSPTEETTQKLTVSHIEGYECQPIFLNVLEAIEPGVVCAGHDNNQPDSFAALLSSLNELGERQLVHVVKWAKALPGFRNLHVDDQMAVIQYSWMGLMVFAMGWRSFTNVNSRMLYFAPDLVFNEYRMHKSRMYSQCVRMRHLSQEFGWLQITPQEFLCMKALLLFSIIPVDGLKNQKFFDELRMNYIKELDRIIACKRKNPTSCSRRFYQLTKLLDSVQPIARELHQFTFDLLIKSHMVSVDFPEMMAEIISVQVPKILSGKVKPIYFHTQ", "test": "Induction of AR degradation in human 22Rv1 cells at 20 uM incubated for 24 hrs in presence of Bortezomib by Western blot analysis", "type": "cell-based"}, "[2]": {"test": "MRT (0 to infinity) in Sprague-Dawley rat at 5 mg/kg, iv by LC-MS/MS analysis", "type": "ADME, organism-based", "settings": "in vivo"}, "[3]": {"test": "MRT (0 to t) in Sprague-Dawley rat at 5 mg/kg, iv by LC-MS/MS analysis", "type": "ADME, organism-based", "settings": "in vivo"}, "[4]": {"tested_on": "CWR22R", "test": "Antitumor activity against human 22Rv1 cells xenografted in NSG mouse assessed as decrease in AR-V7 level in tumor at 10 mg/kg, IG administered once daily for 3 days by […] based analysis", "type": "functional, organism-based", "settings": "time 3.0 day"}, "[5]": {"molecular_target": "T1, Androgen receptor (Homo sapiens)", "test": "Induction of AR degradation in human LNCaP cells incubated for 24 hrs by Western blot analysis", "type": "cell-based", "settings": "dose <= 30.0 µM"}, "[6]": {"test": "Oral bioavailability in Sprague-Dawley rat at 50 mg/kg by LC-MS/MS analysis", "type": "ADME, organism-based", "settings": "in vivo"}, "[7]": {"molecular_target": "T2, Androgen receptor (Homo sapiens, UniProt P10275)", "T2 sequence (P10275 whole entry)": "T1 sequence (whole entry)", "test": "(§1) Induction of AR degradation in human 22Rv1 cells incubated for 24 hrs by Western blot analysis", "type": "cell-based"}, "[8]": {"molecular_target": "T1, Androgen receptor (Homo sapiens)", "test": "as §1", "type": "cell-based", "settings": "dose 1-10 µM"}, "[9]": {"molecular_target": "T1, Androgen receptor (Homo sapiens)", "test": "Induction of AR degradation in human LNCaP cells at 5 uM by Western blot analysis", "type": "cell-based", "settings": "time <= 24.0 hrs, TDE = time-dependent effect"}, "[10]": {"tested_on": "CWR22R", "test": "Downregulation of DHCR24 mRNA expression in human 22Rv1 cells at 10 uM incubated for 24 hrs by qRT-PCR analysis", "type": "functional, cell-based"}, "[11]": {"test": "Toxicity in NSG mouse xenografted with human 22Rv1 cells assessed as spleen damage t at 30 mg/kg, IG administered once daily for 21 days by H and E staining based analysis", "type": "organism-based, CWR22R", "settings": "in vivo, po, 504 h, time 21 day"}, "[12]": {"tested_on": "Androgen receptor (Homo sapiens), P10275 [UNDEFINED MUTATION]", "test": "Induction of AR-V7 degradation in human 22Rv1 cells at 20 uM incubated for 24 hrs in presence of Bortezomib by Western blot analysis", "type": "cell-based"}, "[13]": {"test": "Toxicity in NSG mouse xenografted with human 22Rv1 cells assessed as heart damage t at 30 mg/kg, IG administered once daily for 21 days by H and E staining based analysis", "type": "organism-based, CWR22R", "settings": "in vivo, po, 504 h, time 21 day"}, "[14]": {"tested_on": "CWR22R", "test": "Downregulation of AR mRNA expression in human 22Rv1 cells at 5 to 10 uM incubated for 12 hrs by qRT-PCR analysis", "type": "functional, cell-based", "settings": "dose 5-10 µM"}, "[15]": {"test": "Half life in Sprague-Dawley rat at 5 mg/kg, iv by LC-MS/MS analysis", "type": "ADME, organism-based", "settings": "in vivo"}, "[16]": {"tested_on": "DU-145", "test": "Antiproliferative activity against AR-negative human DU-145 cells assessed as inhibition of cell growth incubated for 48 hrs by CCK-8 assay", "type": "functional, cell-based", "settings": "DU-145, 48 h"}, "[17]": {"tested_on": "CWR22R", "test": "Downregulation of FKBP5 mRNA expression in human 22Rv1 cells at 10 uM incubated for 24 hrs by qRT-PCR analysis", "type": "functional, cell-based"}, "[18]": {"tested_on": "CWR22R", "test": "Downregulation of NKX3-1 mRNA expression in human 22Rv1 cells at 10 uM incubated for 24 hrs by qRT-PCR analysis", "type": "functional, cell-based"}, "[19]": {"tested_on": "CWR22R", "test": "Induction of apoptosis in human 22Rv1 cells at 10 uM incubated for 24 hrs by Annexin V-FITC/PI staining based flow cytometric analysis (reference value: 3.70 %)", "type": "functional"}, "[20]": {"tested_on": "CWR22R", "test": "Downregulation of STEAP4 mRNA expression in human 22Rv1 cells at 10 uM incubated for 24 hrs by qRT-PCR analysis", "type": "functional, cell-based"}, "[21]": {"tested_on": "CWR22R", "test": "cells", "type": "functional, cell-based", "settings": "Homo sapiens, 22Rv1, 48 h", "description": "Antiproliferative activity against AR/AR-V7 positive human 22Rv1 cells assessed as inhibition of cell growth incubated for 48 hrs by CCK-8 assay"}, "[22]": {"tested_on": "CWR22R", "test": "Downregulation of BCHE mRNA expression in human 22Rv1 cells at 10 uM incubated for 24 hrs by qRT-PCR analysis", "type": "functional, cell-based"}, "[23]": {"molecular_target": "T1, Androgen receptor (Homo sapiens)", "test": "Induction of AR degradation in human 22Rv1 cells at 10 uM incubated for 24 hrs in presence of CHX by Western blot analysis", "type": "cell-based"}, "[24]": {"tested_on": "CWR22R", "test": "Downregulation of MMP16 mRNA expression in human 22Rv1 cells at 10 uM incubated for 24 hrs by qRT-PCR analysis", "type": "functional, cell-based"}, "[25]": {"test": "Toxicity in NSG mouse xenografted with human 22Rv1 cells assessed as lung damage t at 30 mg/kg, IG administered once daily for 21 days by H and E staining based analysis", "type": "organism-based, CWR22R", "settings": "in vivo, po, 504 h, time 21 day"}, "[26]": {"tested_on": "CWR22R", "test": "Antitumor activity against human 22Rv1 cells xenografted in NSG mouse assessed as decrease in AR level in tumor at 10 mg/kg, IG administered once daily for 3 days by […] based analysis", "type": "functional, organism-based", "settings": "time 3.0 day"}, "[27]": {"tested_on": "CWR22R", "test": "Downregulation of KLK3 mRNA expression in human 22Rv1 cells incubated for 24 hrs by qRT-PCR analysis", "type": "functional, cell-based", "settings": "dose 5-10 µM"}, "[28]": {"tested_on": "CWR22R", "test": "Inhibition of colony formation in human 22Rv1 cells incubated for 2 weeks by crystal violet staining based analysis", "type": "functional, cell-based", "settings": "dose 0.1-5 µM"}, "[29]": {"tested_on": "CWR22R", "test": "Drug localization in nucleus of human 22Rv1 cells at 5 uM incubated for 24 hrs by DAPI staining based immunofluorescence analysis", "type": "functional, cell-based"}, "[30]": {"tested_on": "CWR22R", "test": "Downregulation of AR expression in human 22Rv1 cells at 5 uM incubated for 24 hrs by Western blot analysis", "type": "functional, cell-based"}}, "note": "Calls of active or inactive are those of the source. The rule behind the calls is not given here."}
{"smiles": "CC1(C)C(=O)N(c2ccc(C#N)c(C(F)(F)F)c2)C(=O)N1CCNc1ccc(F)c2ncccc12", "values": [{"measurement": "Activity", "setting": "[1]", "value": "Active"}, {"measurement": "MRT", "setting": "[2]", "value": 4.1, "unit": "h"}, {"measurement": "MRT last", "setting": "[3]", "value": 1.3, "unit": "h"}, {"measurement": "Activity", "setting": "[4]", "value": "Active"}, {"measurement": "Activity", "setting": "[5]", "value": "Dose-Dependent Effect"}, {"measurement": "bioavailability", "setting": "[6]", "value": 11.9, "unit": "%"}, {"measurement": "DC50", "setting": "[7]", "value": 2670, "unit": "nM"}, {"measurement": "Activity", "setting": "[8]", "value": "Dose-Dependent Effect"}, {"measurement": "Activity", "setting": "[9]", "value": "Tde"}, {"measurement": "Activity", "setting": "[10]", "value": "Active"}, {"measurement": "Activity", "setting": "[11]", "value": "Non-Toxic"}, {"measurement": "Activity", "setting": "[12]", "value": "Active"}, {"measurement": "Activity", "setting": "[13]", "value": "Non-Toxic"}, {"measurement": "Activity", "setting": "[14]", "value": "Active"}, {"measurement": "half-life", "setting": "[15]", "value": 1.4, "unit": "h"}, {"measurement": "IC50", "setting": "[16]", "value": "> 50000", "unit": "nM"}, {"measurement": "Activity", "setting": "[17]", "value": "Active"}, {"measurement": "Activity", "setting": "[18]", "value": "Active"}, {"measurement": "Activity", "setting": "[19]", "value": 30.91, "unit": "%"}, {"measurement": "Activity", "setting": "[20]", "value": "Active"}, {"measurement": "IC50", "setting": "[21]", "value": 900, "unit": "nM"}, {"measurement": "Activity", "setting": "[22]", "value": "Active"}, {"measurement": "Activity", "setting": "[23]", "value": "Active"}, {"measurement": "Activity", "setting": "[24]", "value": "Active"}, {"measurement": "Activity", "setting": "[25]", "value": "Non-Toxic"}, {"measurement": "Activity", "setting": "[26]", "value": "Active"}, {"measurement": "Activity", "setting": "[27]", "value": "Dose-Dependent Effect"}, {"measurement": "inhibition", "setting": "[28]", "value": "Dose-Dependent Effect"}, {"measurement": "Activity", "setting": "[29]", "value": "Active"}, {"measurement": "Activity", "setting": "[30]", "value": "Active"}]}
